In the NIST ThermoML archive (doi:10.1016/j.jct.2016.04.014):

Conditions: Liquid, Vibrating tube method

CCCCCCC [heptane]
Conditions | mass density [kg/m3]
288.15 K, 100 kPa | 688.4
288.15 K, 101 kPa | 688.33
288.15 K, 1000 kPa | 689.2
288.15 K, 5000 kPa | 692.5
288.15 K, 10000 kPa | 696.5
288.15 K, 15000 kPa | 700.4
288.15 K, 20000 kPa | 704.1
288.15 K, 25000 kPa | 707.7
288.15 K, 30000 kPa | 711.1
288.15 K, 35000 kPa | 714.3
288.15 K, 40000 kPa | 717.4
288.15 K, 45000 kPa | 720.3
288.15 K, 50000 kPa | 723.1
288.15 K, 55000 kPa | 725.8
288.15 K, 60000 kPa | 728.2
293.15 K, 100 kPa | 684.2
293.15 K, 101 kPa | 684.11
293.15 K, 1000 kPa | 685
293.15 K, 5000 kPa | 688.4
293.15 K, 10000 kPa | 692.6
293.15 K, 15000 kPa | 696.5
293.15 K, 20000 kPa | 700.4
293.15 K, 25000 kPa | 704
293.15 K, 30000 kPa | 707.5
293.15 K, 35000 kPa | 710.9
293.15 K, 40000 kPa | 714
293.15 K, 45000 kPa | 717
293.15 K, 50000 kPa | 719.9
293.15 K, 55000 kPa | 722.5
293.15 K, 60000 kPa | 725.1
298.15 K, 100 kPa | 679.9
298.15 K, 101 kPa | 679.87
298.15 K, 1000 kPa | 680.7
298.15 K, 5000 kPa | 684.3
298.15 K, 10000 kPa | 688.6
298.15 K, 15000 kPa | 692.7
298.15 K, 20000 kPa | 696.6
298.15 K, 25000 kPa | 700.4
298.15 K, 30000 kPa | 704
298.15 K, 35000 kPa | 707.4
298.15 K, 40000 kPa | 710.7
298.15 K, 45000 kPa | 713.8
298.15 K, 50000 kPa | 716.7
298.15 K, 55000 kPa | 719.4
298.15 K, 60000 kPa | 721.9
303.15 K, 100 kPa | 675.7
303.15 K, 101 kPa | 675.6
303.15 K, 1000 kPa | 676.5
303.15 K, 5000 kPa | 680.2
303.15 K, 10000 kPa | 684.6
303.15 K, 15000 kPa | 688.9
303.15 K, 20000 kPa | 693
303.15 K, 25000 kPa | 696.8
303.15 K, 30000 kPa | 700.5
303.15 K, 35000 kPa | 704
303.15 K, 40000 kPa | 707.4
303.15 K, 45000 kPa | 710.5
303.15 K, 50000 kPa | 713.5
303.15 K, 55000 kPa | 716.2
303.15 K, 60000 kPa | 718.8
308.15 K, 100 kPa | 671.4
308.15 K, 101 kPa | 671.31
308.15 K, 1000 kPa | 672.2
308.15 K, 5000 kPa | 676
308.15 K, 10000 kPa | 680.6
308.15 K, 15000 kPa | 685
308.15 K, 20000 kPa | 689.2
308.15 K, 25000 kPa | 693.2
308.15 K, 30000 kPa | 697
308.15 K, 35000 kPa | 700.6
308.15 K, 40000 kPa | 704
308.15 K, 45000 kPa | 707.2
308.15 K, 50000 kPa | 710.3
308.15 K, 55000 kPa | 713.1
308.15 K, 60000 kPa | 715.7
313.15 K, 100 kPa | 667.1
313.15 K, 101 kPa | 667
313.15 K, 1000 kPa | 668
313.15 K, 5000 kPa | 672
313.15 K, 10000 kPa | 676.7
313.15 K, 15000 kPa | 681.2
313.15 K, 20000 kPa | 685.5
313.15 K, 25000 kPa | 689.6
313.15 K, 30000 kPa | 693.5
313.15 K, 35000 kPa | 697.2
313.15 K, 40000 kPa | 700.7
313.15 K, 45000 kPa | 704
313.15 K, 50000 kPa | 707.1
313.15 K, 55000 kPa | 709.9
313.15 K, 60000 kPa | 712.6
318.15 K, 100 kPa | 662.7
318.15 K, 1000 kPa | 663.6
318.15 K, 5000 kPa | 667.7
318.15 K, 10000 kPa | 672.6
318.15 K, 15000 kPa | 677.3
318.15 K, 20000 kPa | 681.8
318.15 K, 25000 kPa | 686
318.15 K, 30000 kPa | 690
318.15 K, 35000 kPa | 693.8
318.15 K, 40000 kPa | 697.4
318.15 K, 45000 kPa | 700.7
318.15 K, 50000 kPa | 703.9
318.15 K, 55000 kPa | 706.8
318.15 K, 60000 kPa | 709.5
323.15 K, 100 kPa | 658.3
323.15 K, 1000 kPa | 659.3
323.15 K, 5000 kPa | 663.5
323.15 K, 10000 kPa | 668.6
323.15 K, 15000 kPa | 673.4
323.15 K, 20000 kPa | 678
323.15 K, 25000 kPa | 682.4
323.15 K, 30000 kPa | 686.5
323.15 K, 35000 kPa | 690.4
323.15 K, 40000 kPa | 694.1
323.15 K, 45000 kPa | 697.5
323.15 K, 50000 kPa | 700.7
323.15 K, 55000 kPa | 703.7
323.15 K, 60000 kPa | 706.4
328.15 K, 100 kPa | 653.9
328.15 K, 1000 kPa | 654.9
328.15 K, 5000 kPa | 659.3
328.15 K, 10000 kPa | 664.5
328.15 K, 15000 kPa | 669.5
328.15 K, 20000 kPa | 674.3
328.15 K, 25000 kPa | 678.8
328.15 K, 30000 kPa | 683
328.15 K, 35000 kPa | 687
328.15 K, 40000 kPa | 690.8
328.15 K, 45000 kPa | 694.3
328.15 K, 50000 kPa | 697.6
328.15 K, 55000 kPa | 700.6
328.15 K, 60000 kPa | 703.3
333.15 K, 100 kPa | 649.5
333.15 K, 1000 kPa | 650.6
333.15 K, 5000 kPa | 655.1
333.15 K, 10000 kPa | 660.5
333.15 K, 15000 kPa | 665.7
333.15 K, 20000 kPa | 670.6
333.15 K, 25000 kPa | 675.2
333.15 K, 30000 kPa | 679.6
333.15 K, 35000 kPa | 683.7
333.15 K, 40000 kPa | 687.5
333.15 K, 45000 kPa | 691.1
333.15 K, 50000 kPa | 694.4
333.15 K, 55000 kPa | 697.4
333.15 K, 60000 kPa | 700.2
343.15 K, 100 kPa | 640.5
343.15 K, 1000 kPa | 641.6
343.15 K, 5000 kPa | 646.5
343.15 K, 10000 kPa | 652.3
343.15 K, 15000 kPa | 657.8
343.15 K, 20000 kPa | 663.1
343.15 K, 25000 kPa | 668
343.15 K, 30000 kPa | 672.6
343.15 K, 35000 kPa | 676.9
343.15 K, 40000 kPa | 681
343.15 K, 45000 kPa | 684.7
343.15 K, 50000 kPa | 688.1
343.15 K, 55000 kPa | 691.3
343.15 K, 60000 kPa | 694.1
353.15 K, 100 kPa | 631.3
353.15 K, 1000 kPa | 632.5
353.15 K, 5000 kPa | 637.8
353.15 K, 10000 kPa | 644
353.15 K, 15000 kPa | 649.9
353.15 K, 20000 kPa | 655.5
353.15 K, 25000 kPa | 660.7
353.15 K, 30000 kPa | 665.6
353.15 K, 35000 kPa | 670.2
353.15 K, 40000 kPa | 674.4
353.15 K, 45000 kPa | 678.3
353.15 K, 50000 kPa | 681.9
353.15 K, 55000 kPa | 685.1
353.15 K, 60000 kPa | 688
363.15 K, 100 kPa | 621.9
363.15 K, 1000 kPa | 623.2
363.15 K, 5000 kPa | 628.9
363.15 K, 10000 kPa | 635.6
363.15 K, 15000 kPa | 641.9
363.15 K, 20000 kPa | 647.9
363.15 K, 25000 kPa | 653.4
363.15 K, 30000 kPa | 658.6
363.15 K, 35000 kPa | 663.5
363.15 K, 40000 kPa | 667.9
363.15 K, 45000 kPa | 672
363.15 K, 50000 kPa | 675.7
363.15 K, 55000 kPa | 679
363.15 K, 60000 kPa | 681.9
373.15 K, 1000 kPa | 614.2
373.15 K, 5000 kPa | 620.2
373.15 K, 10000 kPa | 627.4
373.15 K, 15000 kPa | 634.1
373.15 K, 20000 kPa | 640.4
373.15 K, 25000 kPa | 646.3
373.15 K, 30000 kPa | 651.8
373.15 K, 35000 kPa | 656.9
373.15 K, 40000 kPa | 661.5
373.15 K, 45000 kPa | 665.8
373.15 K, 50000 kPa | 669.6
373.15 K, 55000 kPa | 673.1
373.15 K, 60000 kPa | 676.1
393.15 K, 1000 kPa | 594.6
393.15 K, 5000 kPa | 601.7
393.15 K, 10000 kPa | 610
393.15 K, 15000 kPa | 617.8
393.15 K, 20000 kPa | 625
393.15 K, 25000 kPa | 631.7
393.15 K, 30000 kPa | 637.9
393.15 K, 35000 kPa | 643.6
393.15 K, 40000 kPa | 648.7
393.15 K, 45000 kPa | 653.3
393.15 K, 50000 kPa | 657.4
393.15 K, 55000 kPa | 660.9
393.15 K, 60000 kPa | 663.9
413.15 K, 1000 kPa | 574.1
413.15 K, 5000 kPa | 582.3
413.15 K, 10000 kPa | 592
413.15 K, 15000 kPa | 600.9
413.15 K, 20000 kPa | 609.2
413.15 K, 25000 kPa | 616.9
413.15 K, 30000 kPa | 623.9
413.15 K, 35000 kPa | 630.2
413.15 K, 40000 kPa | 635.9
413.15 K, 45000 kPa | 640.9
413.15 K, 50000 kPa | 645.2
413.15 K, 55000 kPa | 648.9
413.15 K, 60000 kPa | 651.9
